How the values were obtained:
[1] = molecular target: T1, Neuropeptide Y receptor type 1 (Homo sapiens, UniProt P25929)
T1 sequence (P25929 whole entry): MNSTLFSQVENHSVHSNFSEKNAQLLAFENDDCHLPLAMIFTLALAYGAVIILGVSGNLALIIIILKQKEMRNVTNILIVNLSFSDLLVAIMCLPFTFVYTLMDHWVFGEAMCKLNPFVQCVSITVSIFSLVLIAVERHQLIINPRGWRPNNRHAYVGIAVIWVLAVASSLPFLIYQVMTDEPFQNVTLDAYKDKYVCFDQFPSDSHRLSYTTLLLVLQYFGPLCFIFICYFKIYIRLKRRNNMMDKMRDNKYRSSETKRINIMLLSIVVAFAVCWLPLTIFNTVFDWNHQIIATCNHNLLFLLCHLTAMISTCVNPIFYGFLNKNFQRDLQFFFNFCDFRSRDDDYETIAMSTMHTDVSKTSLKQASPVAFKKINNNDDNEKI

Vasopressin V2 receptor = Vasopressin V2 receptor (Homo sapiens, UniProt P30518)
[2] = molecular target: cGMP-inhibited 3',5'-cyclic phosphodiesterase 3A (Homo sapiens, UniProt Q14432); format: functional
cGMP-inhibited 3',5'-cyclic phosphodiesterase 3A, sequence (Q14432 whole entry): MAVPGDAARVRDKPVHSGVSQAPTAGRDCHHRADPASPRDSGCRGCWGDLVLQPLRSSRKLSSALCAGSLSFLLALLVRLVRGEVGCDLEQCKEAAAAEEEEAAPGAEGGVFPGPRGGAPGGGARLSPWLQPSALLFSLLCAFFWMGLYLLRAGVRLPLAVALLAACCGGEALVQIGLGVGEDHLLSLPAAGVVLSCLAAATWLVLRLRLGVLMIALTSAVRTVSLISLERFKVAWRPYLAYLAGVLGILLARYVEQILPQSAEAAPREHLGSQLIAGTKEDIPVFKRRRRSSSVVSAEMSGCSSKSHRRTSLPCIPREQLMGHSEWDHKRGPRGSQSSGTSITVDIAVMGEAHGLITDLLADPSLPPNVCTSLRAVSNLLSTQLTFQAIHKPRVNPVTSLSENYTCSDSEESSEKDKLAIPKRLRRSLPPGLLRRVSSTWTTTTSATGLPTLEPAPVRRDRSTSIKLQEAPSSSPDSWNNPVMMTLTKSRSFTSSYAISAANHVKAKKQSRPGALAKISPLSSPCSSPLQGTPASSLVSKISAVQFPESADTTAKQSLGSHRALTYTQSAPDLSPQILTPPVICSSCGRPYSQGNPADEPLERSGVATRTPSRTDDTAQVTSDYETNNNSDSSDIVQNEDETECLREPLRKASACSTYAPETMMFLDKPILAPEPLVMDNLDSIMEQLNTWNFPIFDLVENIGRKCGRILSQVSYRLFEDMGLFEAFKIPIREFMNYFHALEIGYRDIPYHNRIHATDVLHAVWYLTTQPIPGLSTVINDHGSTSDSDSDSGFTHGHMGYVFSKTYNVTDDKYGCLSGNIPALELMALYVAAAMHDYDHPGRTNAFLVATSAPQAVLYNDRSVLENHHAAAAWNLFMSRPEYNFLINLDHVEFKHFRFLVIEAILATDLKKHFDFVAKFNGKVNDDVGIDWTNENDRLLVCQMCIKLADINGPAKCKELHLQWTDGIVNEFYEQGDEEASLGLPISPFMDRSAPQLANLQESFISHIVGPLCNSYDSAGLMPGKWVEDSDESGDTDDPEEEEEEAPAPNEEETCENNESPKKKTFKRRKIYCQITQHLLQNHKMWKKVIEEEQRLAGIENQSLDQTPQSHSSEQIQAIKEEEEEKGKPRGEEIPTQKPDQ

[3] = molecular target: T2, Prostaglandin G/H synthase 1 (Rattus norvegicus, UniProt Q63921); format: functional
T2 sequence (Q63921 whole entry): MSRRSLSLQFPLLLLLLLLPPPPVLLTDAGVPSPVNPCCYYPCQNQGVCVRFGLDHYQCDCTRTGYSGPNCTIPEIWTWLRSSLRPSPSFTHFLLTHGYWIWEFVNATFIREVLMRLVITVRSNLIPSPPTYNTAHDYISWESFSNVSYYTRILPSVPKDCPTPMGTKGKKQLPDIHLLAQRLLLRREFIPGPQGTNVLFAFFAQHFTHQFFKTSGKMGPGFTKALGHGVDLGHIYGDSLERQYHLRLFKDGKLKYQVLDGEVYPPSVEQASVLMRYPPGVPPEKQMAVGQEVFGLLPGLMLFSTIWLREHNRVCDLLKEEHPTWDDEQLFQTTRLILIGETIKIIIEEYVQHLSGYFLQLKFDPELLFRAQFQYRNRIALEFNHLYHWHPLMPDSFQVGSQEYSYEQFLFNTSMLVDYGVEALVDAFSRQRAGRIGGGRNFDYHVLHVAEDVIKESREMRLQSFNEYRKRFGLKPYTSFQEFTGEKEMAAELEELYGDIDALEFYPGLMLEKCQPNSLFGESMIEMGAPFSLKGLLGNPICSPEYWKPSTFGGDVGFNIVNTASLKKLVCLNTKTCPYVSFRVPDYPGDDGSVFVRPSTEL

[4] = molecular target: T3, Amine oxidase [flavin-containing] A (Homo sapiens, UniProt P21397); format: functional
T3 sequence (P21397 whole entry): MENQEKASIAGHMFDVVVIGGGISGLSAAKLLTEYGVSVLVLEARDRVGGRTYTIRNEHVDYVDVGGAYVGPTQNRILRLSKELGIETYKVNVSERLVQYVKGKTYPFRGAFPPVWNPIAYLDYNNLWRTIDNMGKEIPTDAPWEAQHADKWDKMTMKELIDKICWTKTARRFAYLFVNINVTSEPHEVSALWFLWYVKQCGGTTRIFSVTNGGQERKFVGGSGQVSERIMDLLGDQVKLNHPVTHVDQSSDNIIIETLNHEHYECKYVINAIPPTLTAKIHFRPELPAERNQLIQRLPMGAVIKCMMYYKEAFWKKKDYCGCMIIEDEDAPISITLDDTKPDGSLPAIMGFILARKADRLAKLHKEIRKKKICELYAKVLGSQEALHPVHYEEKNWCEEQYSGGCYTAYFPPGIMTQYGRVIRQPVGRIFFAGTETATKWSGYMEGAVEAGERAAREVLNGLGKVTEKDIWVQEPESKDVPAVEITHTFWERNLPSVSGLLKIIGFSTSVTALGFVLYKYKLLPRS

[5] = molecular target: 5-hydroxytryptamine receptor 2A (Homo sapiens, UniProt P28223); format: functional, cell-based
5-hydroxytryptamine receptor 2A, sequence (P28223 whole entry): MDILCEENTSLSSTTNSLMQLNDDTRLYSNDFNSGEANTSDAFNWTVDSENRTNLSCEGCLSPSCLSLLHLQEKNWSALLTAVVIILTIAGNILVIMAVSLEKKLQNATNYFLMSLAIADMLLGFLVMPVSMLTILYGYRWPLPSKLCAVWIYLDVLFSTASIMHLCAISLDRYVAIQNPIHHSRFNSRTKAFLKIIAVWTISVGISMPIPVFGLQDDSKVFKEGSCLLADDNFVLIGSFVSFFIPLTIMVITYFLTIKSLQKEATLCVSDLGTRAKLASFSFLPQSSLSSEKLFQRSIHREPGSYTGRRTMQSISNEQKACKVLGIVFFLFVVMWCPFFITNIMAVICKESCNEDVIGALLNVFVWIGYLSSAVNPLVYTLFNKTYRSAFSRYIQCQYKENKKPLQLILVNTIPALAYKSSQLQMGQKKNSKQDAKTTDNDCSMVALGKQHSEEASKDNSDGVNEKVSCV

Adenosine receptor A2a = Adenosine receptor A2a (Homo sapiens, UniProt P29274)
Adenosine receptor A2a, sequence (P29274 whole entry): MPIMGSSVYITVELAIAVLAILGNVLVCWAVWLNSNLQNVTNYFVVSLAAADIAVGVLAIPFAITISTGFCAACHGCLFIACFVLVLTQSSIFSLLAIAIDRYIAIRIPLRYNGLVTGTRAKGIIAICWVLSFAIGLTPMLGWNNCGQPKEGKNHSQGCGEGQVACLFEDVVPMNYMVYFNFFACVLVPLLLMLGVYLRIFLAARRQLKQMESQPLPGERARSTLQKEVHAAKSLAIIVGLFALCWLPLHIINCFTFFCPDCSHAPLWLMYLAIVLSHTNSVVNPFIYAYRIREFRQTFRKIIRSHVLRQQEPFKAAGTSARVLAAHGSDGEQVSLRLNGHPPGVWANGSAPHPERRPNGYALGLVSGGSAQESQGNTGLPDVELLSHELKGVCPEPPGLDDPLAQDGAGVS

[6] = molecular target: T4, Equilibrative nucleoside transporter 1 (Homo sapiens, UniProt Q99808)
T4 sequence (Q99808 whole entry): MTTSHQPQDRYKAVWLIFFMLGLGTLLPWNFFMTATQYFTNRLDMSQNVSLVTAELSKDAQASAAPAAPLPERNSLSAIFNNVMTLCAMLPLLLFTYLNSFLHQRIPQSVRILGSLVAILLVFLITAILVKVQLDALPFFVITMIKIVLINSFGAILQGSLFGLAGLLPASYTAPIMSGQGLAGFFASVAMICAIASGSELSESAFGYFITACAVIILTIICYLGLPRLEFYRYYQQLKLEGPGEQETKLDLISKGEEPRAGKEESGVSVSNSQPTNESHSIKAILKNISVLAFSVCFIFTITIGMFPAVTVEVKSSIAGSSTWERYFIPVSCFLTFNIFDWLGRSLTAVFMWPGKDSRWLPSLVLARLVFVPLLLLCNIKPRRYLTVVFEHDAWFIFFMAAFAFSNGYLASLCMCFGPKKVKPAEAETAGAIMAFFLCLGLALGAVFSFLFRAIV

[7] = molecular target: Neuronal acetylcholine receptor subunit alpha-4 (Homo sapiens, UniProt P43681)
Neuronal acetylcholine receptor subunit alpha-4, sequence (P43681 whole entry): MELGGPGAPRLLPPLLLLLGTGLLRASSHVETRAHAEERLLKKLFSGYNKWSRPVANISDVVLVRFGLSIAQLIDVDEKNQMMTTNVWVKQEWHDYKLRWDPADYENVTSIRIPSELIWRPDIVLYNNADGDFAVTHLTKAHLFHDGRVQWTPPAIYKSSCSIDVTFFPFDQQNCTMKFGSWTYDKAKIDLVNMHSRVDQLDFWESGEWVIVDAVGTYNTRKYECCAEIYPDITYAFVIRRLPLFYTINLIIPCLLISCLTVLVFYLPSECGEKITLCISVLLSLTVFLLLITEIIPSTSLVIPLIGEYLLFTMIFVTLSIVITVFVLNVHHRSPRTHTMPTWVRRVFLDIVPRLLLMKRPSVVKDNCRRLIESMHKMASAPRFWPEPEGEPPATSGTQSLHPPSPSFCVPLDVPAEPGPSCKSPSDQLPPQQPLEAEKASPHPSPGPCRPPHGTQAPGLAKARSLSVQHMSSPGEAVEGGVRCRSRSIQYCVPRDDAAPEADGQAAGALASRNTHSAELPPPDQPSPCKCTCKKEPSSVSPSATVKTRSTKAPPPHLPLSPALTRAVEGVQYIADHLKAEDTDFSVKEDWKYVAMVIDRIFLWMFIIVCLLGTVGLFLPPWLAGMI

[8] = molecular target: Growth hormone secretagogue receptor type 1 (Homo sapiens, UniProt Q92847)
Growth hormone secretagogue receptor type 1, sequence (Q92847 whole entry): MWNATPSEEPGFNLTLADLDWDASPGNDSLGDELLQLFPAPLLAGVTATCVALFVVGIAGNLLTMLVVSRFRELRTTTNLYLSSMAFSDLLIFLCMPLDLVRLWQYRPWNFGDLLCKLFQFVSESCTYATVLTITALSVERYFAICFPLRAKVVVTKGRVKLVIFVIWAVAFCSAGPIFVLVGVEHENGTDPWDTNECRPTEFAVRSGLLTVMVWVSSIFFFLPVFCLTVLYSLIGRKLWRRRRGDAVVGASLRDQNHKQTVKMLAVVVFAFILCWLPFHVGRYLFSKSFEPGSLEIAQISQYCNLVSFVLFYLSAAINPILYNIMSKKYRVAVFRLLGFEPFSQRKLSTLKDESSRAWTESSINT

D(3) dopamine receptor = D(3) dopamine receptor (Homo sapiens, UniProt P35462)
D(3) dopamine receptor, sequence (P35462 whole entry): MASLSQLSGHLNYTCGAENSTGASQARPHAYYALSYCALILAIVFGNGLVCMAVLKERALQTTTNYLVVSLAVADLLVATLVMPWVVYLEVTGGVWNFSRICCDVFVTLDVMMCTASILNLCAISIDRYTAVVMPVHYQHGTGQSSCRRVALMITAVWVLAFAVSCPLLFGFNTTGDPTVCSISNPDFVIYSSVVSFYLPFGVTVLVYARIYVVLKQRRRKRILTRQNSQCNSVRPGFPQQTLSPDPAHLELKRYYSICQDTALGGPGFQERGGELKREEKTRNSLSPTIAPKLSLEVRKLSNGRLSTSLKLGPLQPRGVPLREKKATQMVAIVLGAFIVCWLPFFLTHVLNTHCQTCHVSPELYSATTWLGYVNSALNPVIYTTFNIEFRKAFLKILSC
Further: assay procedure not described here.

Compound | AC50 [1] [µM] | AC50 (Vasopressin V2 receptor) [µM] | AC50 [2] [µM] | AC50 [3] [µM] | AC50 [4] [µM] | AC50 [5] [µM] | AC50 (Adenosine receptor A2a) [µM] | AC50 [6] [µM] | AC50 [7] [µM] | AC50 [8] [µM] | AC50 (D(3) dopamine receptor) [µM]
Cc1nc2ccc(CN(C)c3ccc(C(=O)N[C@@H](CCC(=O)O)C(=O)O)s3)cc2c(=O)[nH]1 [RALTITREXED] | > 30 | > 30 | > 30 | > 30 | > 30 | > 30 | > 30 | > 30 | > 30 | > 30 | > 30
C1COC(NC(C2CC2)C2CC2)=N1 [RILMENIDINE] | > 30 | > 30 | > 30 | > 30 | > 10 | > 30 | > 30 | > 30 | > 10 | > 30 | > 10
CC(=O)NS(=O)(=O)c1ccc(N)cc1 [SULFACETAMIDE] | > 10 | > 10 | > 30 | > 10 | > 10 | > 10 | > 10 | > 10 | > 10 | > 10 | > 30
Cc1ccc(-c2nc3ccc(C)cn3c2CC(=O)N(C)C)cc1 [ZOLPIDEM] | > 30 | > 30 | > 30 | > 30 | > 30 | > 30 | > 30 | > 30 | > 30 | > 30 | > 30
CN1CCN(C(=O)OC2c3nccnc3C(=O)N2c2ccc(Cl)cn2)CC1 (stereo unspecified) [ZOPICLONE] | > 30 | > 30 | > 30 | > 30 | > 30 | > 30 | > 30 | > 30 | > 30 | > 30 | > 10
TOCOFERSOLAN | > 30 | > 30 | > 10 | 4 | > 30 | > 30 | > 30 | > 30 | > 30 | > 30 | > 30
